“Also recorded” adds a separate entry of the source.
Columns and labels:
CWR22Rv1 cells = assay: CWR22Rv1 xenograft tumor growth in athymic nude mice; assay type: in vivo, mouse; conditions: Lupeol 1 mg/animal i.p. three times a week, vs control mice
Method: FIG. 18 depicts effect of lupeol treatment on the growth of tumors from CWR22Rv1 cells implanted in nude mice. The growth was measured in terms of average volume of tumors as a function of time. Data is represented as mean±SD. * indicates p<0.05 (B) Number of mice remaining with tumor volumes<1000 mm^3 after treatment with corn oil alone or Lupeol for indicated weeks. * indicates p<0.01
To determine, whether lupeol could reduce the tumorigenicity of prostate cancer cells in animal model, androgen-dependent prostate cancer cells CW22Rv1, were implanted in a Athymic nude mouse xenograft model. Mice were given i.p. injection of Lupeol (1 mg/animal) three times a week. Tumor growth was measured weekly in terms of volume of tumors as function of time.

epidermal ODC = assay: TPA-induced epidermal ODC enzyme activity (14CO2 release); assay type: in vivo, mouse; conditions: for inhibition of TPA-caused induction of epidermal ODC activity: p<0.005
Method: FIG. 3. Inhibitory effect of Lupeol on TPA-induced epidermal ODC activity: ODC enzyme activity was determined using 0.4 ml epidermal supernatant by measuring the release of ^14CO2 from the D, L-[^14C]ornithine. Data is represented as mean±SE of four individual values (* represents p<0.005). The epidermis from two animals was pooled for each determination.
The animals were shaved on the dorsal side of the skin, divided into four groups and treated topically on the shaved area with either 0.4 ml vehicle (acetone), or TPA (3.2 nmol/0.4 ml acetone/animal, v/v), or Lupeol (1 or 2 mg/0.2 ml acetone/animal, w/v) followed 30 min later with TPA (3.2 nmol/0.2 ml acetone/animal). Animals were sacrificed at different times point i.e. 6, 12, 24 and 48 h post TPA treatment. The epidermis was separated from the whole skin and homogenized in 0.1 M Tris-HCl buffer (pH 7.2) using a Polytron tissue homogenizer (Brinkmann Instruments, Westbury, N.Y., USA) at 100,000×g supernatant, and microsomal fractions were prepared as described earlier (Katiyar and Mukhtar, 1997). The sample of 6 h treatment group was used to assess the ODC activity as this time point has previously been shown for optimal induction of the enzyme (Katiyar er al., 1996).
ODC enzyme activity was determined using 0.4 ml epidermal supernatant by measuring the release of ^14CO2 from the D, L-[^14C] ornithine as reported earlier. (Gupta et al., 1999). The epidermis from the skin was homogenized at 4° C. in a glass-to-glass homogenizer in 10 volumes of ODC buffer [50 mM Tris-HCl buffer (pH 7.5) containing 0.1 mM EDTA, 0.1 mM dithiothreitol, 0.1 mM pyridoxal-5-phosphate, 1 mM 2-mercaptoethanol and 0.1% Tween-80]. The homogenate was centrifuged at 100,000×g at 4° C. and the supernatant was used for enzyme determination. […] The radioactivity was measured in a Beckman LS 6000 SC liquid scintillation counter. Enzyme activity was expressed as pmol CO2 released/h/mg protein.

Fas receptor protein = assay: Fas receptor expression in LNCaP cells treated with Lupeol plus anti-Fas mAb (western blot); assay type: cell-based, human; conditions: anti-Fas mAb pretreated LNCaP cells treated with Lupeol
Method: FIG. 16 depicts cells that were treated with vehicle (DMSO+alcohol) only or specified concentrations of Lupeol alone, anti-Fas mAb or with combination (Lupeol+anti-Fas mAb) for 48 h, harvested and total cell lysates were prepared. The expression of Fas receptor protein in total cell lysate was determined by western blot analysis. Equal loading was confirmed by stripping immunoblots and reprobing them for β-actin. The immunoblots shown here are representative of three independent experiments with similar results.

LNCaP cells = assay: LNCaP viability with anti-Fas mAb alone or combined with Lupeol, MTT assay; assay type: cell-based, human
Method: FIG. 15 depicts effect of Lupeol treatment in combination with anti-Fas mAb on the growth of LNCaP cells and on the expression of Fas receptor in LNCaP and PrEC cells: (a) Cells were treated with specified concentrations anti-Fas mAb for 48 h and cell viability was determined by MTT assay. The values are represented as the percent viable cells where vehicle-treated cells were regarded as 100% viable. Data represents mean value of percent viable cells±S.E of three independent experiments. V represents control and vehicle (DMSO) treated cells respectively. (b). Cells were treated with specified concentrations of Lupeol alone, anti-Fas mAb or with combination (Lupeol+anti-Fas mAb) for 48 h and cell viability was determined by MTT assay. “a” and “b” represent pre-treatment and co-treatment of cells with anti-Fas mAb respectively. The values are represented as the percent viable cells where vehicle-treated cells were regarded as 100% viable. Data represents mean value of percent viable cells±S.E of three independent experiments.

[1] = system: Ras, PKCα, ODC, pAkt in AsPC-1 cells; assay: Ras, PKCα, ODC, PI3K, pAkt expression in AsPC-1 cells; assay type: cell-based
Source text: FIG. 23 depicts effect of Lupeol treatment on the expression of Ras, PKCα, ODC, PI3K (P85), pAkt and total Akt, p38 and Erk1/2 proteins in AsPC-1 cells.

[2] = system: PARP, acinus, Bcl2, Bax, Caspase 7 in LNCaP cells; assay: PARP cleavage and apoptosis protein expression in LNCaP cells (western blot); assay type: cell-based, human
Method: FIG. 12 depicts effect of Lupeol treatment on PARP cleavage and on protein expression of acinus, in LNCaP cells. Cells were treated with specified concentrations of Lupeol for 48 h, harvested and total cell lysates were prepared. PARP cleavage and the expression of acinus, were determined by western blot analysis. Equal loading was confirmed by stripping immunoblots and reprobing them for β-actin. The immunoblots shown here are representative of three independent experiments with similar results.

In the case of `C=C(C)[C@@H]1CC[C@]2(C)CC[C@]3(C)[C@H](CC[C@@H]4[C@@]5(C)CC[C@H](O)C(C)(C)[C@@H]5CC[C@]43C)[C@@H]12` [Lupeol, Lup-20(29)-en-3β-ol], the “tumor growth (tumor volume as function of time)” value (CWR22Rv1 cells) is reported as “significant reduction in tumor growth; also recorded: significantly Lower than control mice”, the “inhibition of TPA-caused induction of epidermal ODC activity” value (epidermal ODC; Lupeol 1 mg/animal topical 30 min prior to TPA) is reported as 50% and the “inhibition of TPA-caused induction of epidermal ODC activity” value (epidermal ODC; Lupeol 2 mg/animal topical 30 min prior to TPA) is reported as 75%. For the same molecule, the “basal epidermal ODC activity” value (epidermal ODC; Lupeol alone (2 mg/animal)) was “without any effect”, the Fas protein expression (Fas receptor protein) was “highly increased” and the “combination effect of Lupeol with Fas-agonist (anti-Fas mAb) on cell death” value (LNCaP cells; LNCaP cells, vs additive effect of the two alone) was “synergistic effect; also recorded: significant synergistic manner”. For the same molecule, the “cell death of LNCaP cells” value (LNCaP cells; anti-Fas mAb pretreated LNCaP cells treated with Lupeol (30 μg)) was 95-98%, the “expression of Ras protein” value [1] was “decrease” and the “phosphorylation of Akt” value [1] was “reduction in the phosphorylation of Akt”. The “protein expression of ODC” value [1] was “significant reduction”, the “protein expression of PKCa” value [1] was “significant reduction” and the “Bcl2, Bax and Caspase 7 protein expression” value [2] was “no change”. The “cleavage of PARP and Acinus protein” value ([2]; 48 hours) was “induce the cleavage of PARP protein and degradation of Acinus protein; also recorded: induced cleavage of PARP and Acinus protein”.
